Assay results reported in patent publication US20180162825A1, “NOVEL DGAT2 INHIBITORS” (Eli Lilly and Company, priority 2015, published 2018).

Tests used:
[1] = biological target: T1, human DGAT2 (Homo sapiens, UniProt Q96PD7); assay: Diacylglycerol Acyltransferase 2 (DGAT2) Biochemical Assay; conditions: geometric mean; recombinant human DGAT2 with FLAG tag, 1 hr at RT, 14C oleoyl-CoA; read-out: IC50 (nM), ± SD, (n) = number of experiments
T1 sequence (Q96PD7 1-388): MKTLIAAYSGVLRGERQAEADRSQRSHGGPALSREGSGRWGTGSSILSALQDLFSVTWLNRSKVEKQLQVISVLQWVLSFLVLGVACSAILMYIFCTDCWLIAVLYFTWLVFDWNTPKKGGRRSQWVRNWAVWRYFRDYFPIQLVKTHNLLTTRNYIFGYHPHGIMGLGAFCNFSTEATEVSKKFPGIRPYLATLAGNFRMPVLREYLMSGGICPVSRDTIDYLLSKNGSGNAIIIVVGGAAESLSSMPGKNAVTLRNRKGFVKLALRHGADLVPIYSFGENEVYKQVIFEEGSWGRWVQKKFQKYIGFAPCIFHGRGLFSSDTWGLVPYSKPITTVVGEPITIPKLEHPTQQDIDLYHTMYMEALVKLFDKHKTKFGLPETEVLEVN
Method: The in vitro inhibitory activity of compounds against human DGAT2 is evaluated in this assay. The assay uses recombinant human DGAT2 with a FLAG tag at the amino terminus, expressed in genetically engineered insect SF9 cells, and purified through affinity chromatography.
DGAT2 catalyzes transfer of an acyl moiety from acyl-Coenzyme A onto diacylglycerol, to form triacylglycerol. In this particular embodiment of the assay oleate is used as the acyl moiety that is transferred. To facilitate miscibility of all lipid components, all lipids used in the assay contain oleyl moiety as the only acyl group.
Prior to starting the assay prepare a mixture of dioleoyl glycerol (DOG) and dioleoyl phosphatidylcholine (DOPC) at 3:7 molar ratio. Mix appropriate amount of DOPC and DOG dissolved in chloroform in a borosilicate glass test tube. Evaporate the solvent under stream of argon to form a film of lipid. Subsequently, place the test-tube under vacuum (<1 Torr) for 2 hrs to remove residual solvent. Add appropriate amount of buffer containing TrisHCl (pH 7.5, 150 mM), and sucrose (250 mM) to achieve 20 mM concentration of total lipid. Assure complete suspension of the lipid film by vigorous vortexing. Sonicate the contents of the tube in a water bath sonicator under standing wave conditions until the suspension turns from turbid to translucent, to assure conversion of liposomes into small unilamellar vesicles (SUVs)
Prepare the test compound by dissolving it and serially diluting in half-log increments in DMSO. For each concentration, perform 10-fold step dilution of compound solution in DMSO into buffer containing TrisHCl (pH 7.5, 150 mM), and sucrose (250 mM).
Mix SUV suspensions and compound solution with other components of the assay to achieve the following concentration of individual ingredients: TrisHCl (pH 7.5, 150 mM), sucrose (250 mM), MgCl2 (5 mM,), dithiothreitol (DTT) (0.5 mM), oleoyl coenzyme A (oleoyl-CoA) (12 μM), 1-^14C oleoyl coenzyme A (oleyl-CoA-^14C) (8 μM), dioleoyl glycerol (DOG) (0.6 mM), and dioleoyl phosphatidylcholine (DOPC) (1.4 mM), DGAT2 protein (0.5 nM), DMSO (1%, v/v), with test compound concentration within a 1 nM to 100 μM range, in 30 μl total volume. Incubate the reaction for 1 hr at RT (approximately 21° C.) in individual wells of a 384-well plate. After 1 hr, stop the reaction by adding 23 μl stop solution containing a mixture of isopropanol:EtOH:heptane:DI water: 1 N NaOH (59:12.5:15:11:2.5, by volume). Add 42 μL Microscint E and then incubate mixture overnight to extract the triglyceride into the organic solvent layer containing scintillant. Measure the radioactivity using a Perkin-Elmer TopCount instrument. […] Calculate the degree of inhibition of DGAT2 by measuring the radioactivity at 10 different concentrations for each compound. […]

[2] = biological target: T1, human DGAT2; assay: Diacylglycerol Acyltransferase 2 (DGAT2) Cell-Based Assay (HepG2); design: This assay uses human hepatoma cell-line, HepG2, as a source of acyltransferase activity; endogenous in cells; host or cells: HepG2; conditions: geometric mean; HepG2 cells, incorporation of 13C18-oleate into triolein normalized to POPC; read-out: IC50 (nM) mean ± SD, (n) = number of experiments
Method: The inhibitory activity of compounds against human DGAT2 in a cell environment is evaluated in this assay. This assay uses human hepatoma cell-line, HepG2, as a source of acyltransferase activity.
HepG2 cell line is a commonly used model for metabolic reactions that occur in human hepatocytes in vivo. Synthesis of triglyceride in this cell line is followed by measuring incorporation of isotopically labeled oleate into triolein (a triglyceride with 3 oleoyl moieties).
Dispense the HepG2 cells into a 96-well microplate, which has been previously coated with Poly-D-lysine, in an amount of 50,000 cells/well in 100 μL Minimal Essential Media (MEM) with 10% Fetal Bovine Serum (FBS). Incubate the cells for 16 hr at 37° C. Replace the cell culture medium with MEM containing 2% Bovine Serum Albumin. Dissolve the test compound in 0.5% DMSO and prepare serial dilutions in half-log increments. Add the serially diluted test compound into separate wells. Incubate for 0.5 hr at 37° C. Thereafter replace the cell culture medium with a medium of the same composition, but which includes 50 μM ^13C18-oleate and 300 μM hydropropyl-β-cyclodextrine. Incubate for an additional 4 hr at 37° C. Discard the cell culture medium by flipping the microplate over thereby draining the wells and then soaking up any residual media from the wells with a paper towel. Dry the microplate at ambient temperature (˜21° C.) for 10 min. Add aliquots of 125 μL of solvent (isopropyl alcohol:tetrahydrofuran:methanol:chloroform, in a ratio of 90:10:2.5:2.5 v/v), an internal standard for phosphatidylcholine (PC), and an internal standard for triacylglycerol (TG) to each well. Seal and shake the plate for 30 min at ambient temperature. Transfer 100 μL aliquots of the upper phase of each well into a wells of a deep-well plate (2 mL per well). Analyze the contents of the wells using mass-spectrometry analysis. Measure both triolein with a single ^13C18-oleate moiety and POPC using liquid chromatography/mass spectroscopy method (LC/MS). The degree of incorporation of a single ^13C18-oleate moiety into triolein, normalized to the concentration of 1-palmitoyl-2-oleoyl-phosphatidylcholine (POPC) is used as a measure of DGAT2 activity.
Determine the IC50 for each compound, using a 4 parameter logistic curve fit.

[3] = system: plasma triglycerides; assay: In Vivo Pharmacodynamic Assay: reduction in plasma triglycerides in mice; conditions: Mus musculus, po; male C57BL6 mice, gavage, with 3 mg/kg DGAT1 inhibitor and tyloxapol; reduction in plasma triglycerides vs control; read-out: ED50 (mg/kg) SD
Method: This assay measures the potency of compounds by measuring the reduction in plasma triglycerides in mice treated with the test compounds compared to control animals that are treated only with the vehicle solution. Male, C57BL6 mice (10-11 weeks old, each approximately 22 g in weight) are used in this assay.
Triglycerides synthesized in the liver are secreted into circulation as a component of the Very Low Density Lipoprotein (VLDL). To prevent degradation of triglycerides in circulation by the Lipoprotein Lipase (LPL), this assay uses IV injection of a detergent, tyloxapol, which inhibits activity of LPL. Since another enzyme, DGAT1, participates in the synthesis of liver triglyceride, a saturating dose of a DGAT1 inhibitor (sodium {trans-4-[4-(4-amino-7,7-dimethyl-7H-pyrimido[4,5-b][1,4]oxazin-6-yl)phenyl]cyclohexyl}acetate, IUPAC ACDLABS naming convention, see Dow et al. Bioorg. & Med. Chem., (2011) 21(20), 6122-6128) is also used in this assay. […]
Collect the blood via cardiac puncture into tube containing the anti-coagulant EDTA. […] Freeze the plasma samples on dry ice until they are to be analyzed. […] Reduction in total triglycerides in the test mice is calculated relative to the concentration of triglycerides in the control mice.

[4] = system: LDL-c, VLDL-c and TG serum concentrations; assay: In Vivo Efficacy Model: LDL-c, VLDL-c and TG in LDL receptor-deficient mice; conditions: 30 mg/kg bid, fourteen days, oral gavage, vs control group
From the text: The compounds described herein can be evaluated in an in vivo efficacy model. This assay measures the potency of compounds by measuring the reduction in low density lipoprotein cholesterol (LDL-c), very low density lipoprotein cholesterol (VLDL-c), and triglycerides (TG). Male, LDL receptor-deficient mice (29 weeks old, each approximately 30 g in weight) are used in this assay.
Feed the mice a standard mouse chow diet for two weeks prior to dosing. Prepare a test solution for oral gavage by suspend the compounds in acacia at 0.3, 1, and 3 mg/mL. Separate the mice into a test group and a control group. Thereafter at the first day of the third week dose the mice in the test group with the test solution for fourteen days, BID. Similarly dose the mice in the control group with just the vehicle without any of the test compound. Four hours after the last dose euthanize the mice with CO2. Immediately collect the blood via cardiac puncture. Isolate the serum to measure serum triglycerides as well as cholesterol in individual lipoprotein fractions. Separate the lipoprotein fractions by known HPLC methods. Determine the cholesterol concentration associated with each lipoprotein fraction by a colorimetric method (Roche Cholesterol/HP Reagent 11875540), using isolated lipoprotein fractions with known cholesterol concentration as standards. Results obtained at the highest dose, can be expressed as the percentage of change in comparison of the LDL-c, VLDL-c and TG serum concentrations of mice in the test group to those of mice n the control group.
The results for the compound of Example 24 at 30 mg/kg bid are listed below in Table 21.

[5] = therapy with lomitapide; cited from earlier work

In the case of `CCc1cnc(NCc2ccnc(Oc3ccc(CS(N)(=O)=O)cc3F)c2)nc1` [Example 7, [4-[[4-[[(5-ethylpyrimidin-2-yl)amino]methyl]-2-pyridyl]oxy]-3-fluoro-phenyl]methanesulfonamide], the IC50 [1] is reported as 27 ± 15 nM and the IC50 [2] is reported as 36 ± 1 nM.
`CNS(=O)(=O)Cc1ccc(Oc2cc(CNc3ncc(Cl)cn3)nc(C(F)(F)F)n2)cc1` [Example 10, 1-[4-[6-[[(5-Chloropyrimidin-2-yl)amino]methyl]-2-(trifluoromethyl)pyrimidin-4-yl]oxyphenyl]-N-methyl-methanesulfonamide] showed an IC50 [1] of 52 ± 27 nM and an IC50 [2] of 17 ± 1 nM.
Work on `CN1CCN(c2nc(CNc3ncc(Cl)cn3)cc(Oc3ccc(CS(N)(=O)=O)cc3)n2)CC1` [Example 24, [4-[6-[[(5-Chloropyrimidin-2-yl)amino]methyl]-2-(4-methylpiperazin-1-yl)pyrimidin-4-yl]oxyphenyl]methanesulfonamide] yielded an ED50 [3] of 0.8 ± 0.09 mg/kg, an IC50 [1] of 579 ± 169 nM and an LDL-c % change [4] of −61%. For the same compound, the Triglycerides % change [4] was −56%, the VLDL-c % change [4] was −74% and the IC50 [2] was 9 ± 6 nM.
In the case of `CCc1cnc(NCc2cc(Oc3ccc(CCNS(C)(=O)=O)cc3)nc(N)n2)nc1` [Example 57, N-[2-[4-[2-Amino-6-[[(5-ethylpyrimidin-2-yl)amino]methyl]pyrimidin-4-yl]oxyphenyl]ethyl]methanesulfonamide], the ED50 [3] is reported as 0.23 ± 0.03 mg/kg, the IC50 [1] is reported as 103 ± 51 nM and the IC50 [2] is reported as 53 nM.
In the case of `O=C(NC1CCN(CCCCC2(C(=O)NCC(F)(F)F)c3ccccc3-c3ccccc32)CC1)c1ccccc1-c1ccc(C(F)(F)F)cc1` [lomitapide], the “increase in the liver fat content” value [5] is given as 8 fold.
